ChEMBL document CHEMBL1201862, “PubChem BioAssay data set” (2004)
Calls of active or inactive are those of the source.

Experiments:
Fatty acid synthase = Fatty acid synthase (Homo sapiens, UniProt P49327); assay: inhibition of human FAS-TE enzyme activity – biochemical, kinetic fluorescence intensity, dose response (AID 624326); format: functional;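 also: rate of fluorescence rise from hydrolysis of a fluorogenic O-methyl fluorescein ester substrate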
Nonstructural protein 1 = Nonstructural protein 1 (Influenza A virus, UniProt Q194T2); format: functional, Influenza A virus (A/California/07/2009(H1N1))
Sequence of Nonstructural protein 1 (Q194T2 whole entry): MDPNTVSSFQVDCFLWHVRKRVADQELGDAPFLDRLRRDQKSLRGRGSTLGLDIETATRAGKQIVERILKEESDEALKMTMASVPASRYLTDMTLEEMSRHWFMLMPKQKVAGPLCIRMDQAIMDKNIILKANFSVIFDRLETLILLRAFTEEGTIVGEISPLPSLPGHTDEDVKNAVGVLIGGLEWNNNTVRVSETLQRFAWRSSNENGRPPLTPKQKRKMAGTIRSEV

[1] = target: FAD-linked sulfhydryl oxidase ALR (Homo sapiens, UniProt P55789); assay: ALR-catalysed DTT oxidation blockers – biochemical, H2O2 detection, luminescence, cherry-pick, dose response (AID 493248)
Sequence of FAD-linked sulfhydryl oxidase ALR (P55789 whole entry): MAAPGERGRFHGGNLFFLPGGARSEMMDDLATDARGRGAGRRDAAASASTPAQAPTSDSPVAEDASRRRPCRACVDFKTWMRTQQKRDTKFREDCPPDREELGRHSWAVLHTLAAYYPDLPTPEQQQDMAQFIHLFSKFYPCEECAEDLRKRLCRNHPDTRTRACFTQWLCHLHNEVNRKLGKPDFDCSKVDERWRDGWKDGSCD

[2] = target: Heat shock protein HSP 90-alpha (Homo sapiens, UniProt P07900); format: functional, organism-based
[3] = Luminescence Cell-Based Dose Retest to Confirm Inhibitors of Cancer Stem Cells. [Related pubchem assays (depositor defined):AID2717, AID2721]; format: functional; settings: Homo sapiens
[4] = blockers of HIV-1 envelope-mediated cell-cell fusion – cherry-pick, dose response (AID 652057); format: functional, cell-based
[5] = HIV-1 AD8 envelope cell-cell fusion blockers – cherry-pick, dose response (AID 652062); format: functional, cell-based;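 also: luciferase signal from cell-cell fusion driven by HIV-1 clade B AD8 Env; potency is for inhibitors of fusion seen as a drop in luminescence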
[6] = blockers of HIV-1 ZM109 envelope-driven cell-cell fusion – HeLa effector, CEM target cells, luciferase, cherry-pick, dose response (AID 652058); format: functional, cell-based;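 also: luciferase signal from HIV-1 Env mediated cell-cell fusion of effector and target cells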
[7] = NIH3T3 cell viability loss – ATP luminescence, mouse fibroblasts, counter-screen, dose response (AID 2010); format: functional, cell-based;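 also: cells exposed to compound for about 90 hours before reading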
[8] = Trypanosoma cruzi growth suppression in host cells – NIH3T3 host cells, beta-gal luminescence, confirmation (AID 2044); format: functional, cell-based;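 also: intracellular parasites grown in NIH/3T3 mouse fibroblasts as host cells; luminescent beta-galactosidase reporter signal from transgenic T. cruzi replicating inside host cells; inhibitors lower the luminescence signal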
[9] = off-target signal loss in HeLa-CEM21 co-culture – HeLa F-luc CTL cells, cherry-picked, counter-screen for HIV-1 Env fusion inhibitor project, dose response (AID 652040); format: functional, cell-based;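 also: potency for signal decrease marking cytotoxic or nonspecific inhibition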
Large T antigen = Large T antigen (Simian virus 40, UniProt P03070); format: functional, Betapolyomavirus macacae;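 also: Confirmatory-stage PubChem screen for compounds that inhibit SV40 T antigen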
Sequence of Large T antigen (P03070 whole entry): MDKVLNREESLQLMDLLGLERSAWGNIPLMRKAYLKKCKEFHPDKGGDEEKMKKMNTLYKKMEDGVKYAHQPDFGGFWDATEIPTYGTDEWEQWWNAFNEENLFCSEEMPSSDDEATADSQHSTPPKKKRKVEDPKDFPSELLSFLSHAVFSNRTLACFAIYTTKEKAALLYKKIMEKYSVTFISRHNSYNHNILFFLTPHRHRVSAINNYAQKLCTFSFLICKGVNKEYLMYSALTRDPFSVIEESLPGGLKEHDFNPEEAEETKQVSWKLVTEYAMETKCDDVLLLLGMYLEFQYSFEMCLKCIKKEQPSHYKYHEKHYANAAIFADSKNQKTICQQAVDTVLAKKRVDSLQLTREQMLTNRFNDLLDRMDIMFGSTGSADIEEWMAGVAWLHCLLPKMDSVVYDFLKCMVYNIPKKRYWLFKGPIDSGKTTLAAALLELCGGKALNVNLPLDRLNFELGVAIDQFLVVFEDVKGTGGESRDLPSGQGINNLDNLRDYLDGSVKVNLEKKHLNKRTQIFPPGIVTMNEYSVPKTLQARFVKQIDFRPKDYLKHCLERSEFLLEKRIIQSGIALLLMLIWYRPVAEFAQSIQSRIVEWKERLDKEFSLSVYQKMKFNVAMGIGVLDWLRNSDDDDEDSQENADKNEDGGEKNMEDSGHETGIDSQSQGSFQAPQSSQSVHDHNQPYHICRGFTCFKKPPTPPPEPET

[10] = target: T1, Heat shock factor protein 1 (Mus musculus, UniProt P38532); assay: enhancement of HSF1-driven luciferase signal – cell-based, NIH3T3, luminescence, dose retest, confirmation (AID 435004); format: functional;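 also: stress induced by proteasome inhibitor MG132 added 30 min after compound; luciferase reporter driven by HSF1 response element in NIH3T3 cells; actives raise luminescence as potentiators of the MG132 stress response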
T1 sequence (P38532 whole entry): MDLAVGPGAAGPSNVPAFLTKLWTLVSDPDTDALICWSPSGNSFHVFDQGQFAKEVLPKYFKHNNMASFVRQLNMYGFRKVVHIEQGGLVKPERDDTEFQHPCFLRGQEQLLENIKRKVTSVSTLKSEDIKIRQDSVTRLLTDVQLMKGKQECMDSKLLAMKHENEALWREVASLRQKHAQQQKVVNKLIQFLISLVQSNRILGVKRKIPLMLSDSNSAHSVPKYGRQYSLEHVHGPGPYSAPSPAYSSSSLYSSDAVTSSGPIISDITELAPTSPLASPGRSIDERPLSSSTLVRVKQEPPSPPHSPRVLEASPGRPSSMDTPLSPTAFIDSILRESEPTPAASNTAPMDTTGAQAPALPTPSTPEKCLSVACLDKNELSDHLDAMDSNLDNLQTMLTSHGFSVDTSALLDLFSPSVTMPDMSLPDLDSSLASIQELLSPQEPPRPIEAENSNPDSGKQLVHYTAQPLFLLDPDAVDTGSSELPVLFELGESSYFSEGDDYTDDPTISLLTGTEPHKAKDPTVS

[11] = non-specific 3'UTR reporter inhibition in Clone20-Shn3RL – cell-based, Renilla luciferase, cherry-picked, counter-screen for Shn3 inhibitor project, dose response (AID 624133); format: functional
[12] = reduction of Shn3 3'UTR-driven luciferase in osteoblasts – cell-based, Clone20 osteoblasts, firefly luciferase, cherry-picked, dose response (AID 624132); format: functional;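 also: firefly luciferase luminescence from reporter carrying the Shn3 3'UTR in osteoblasts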
Paired box protein Pax-8 = Paired box protein Pax-8 (Homo sapiens, UniProt Q06710); assay: PAX8 transcriptional activity inhibition in RMG-I – RMG-I cells, luciferase, cherry-pick, dose response (AID 687027); format: functional, cell-based;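 also: luciferase reporter driven by Pax8 target thyroperoxidase promoter measured by SteadyGlo luminescence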
Sequence of Paired box protein Pax-8 (Q06710 whole entry): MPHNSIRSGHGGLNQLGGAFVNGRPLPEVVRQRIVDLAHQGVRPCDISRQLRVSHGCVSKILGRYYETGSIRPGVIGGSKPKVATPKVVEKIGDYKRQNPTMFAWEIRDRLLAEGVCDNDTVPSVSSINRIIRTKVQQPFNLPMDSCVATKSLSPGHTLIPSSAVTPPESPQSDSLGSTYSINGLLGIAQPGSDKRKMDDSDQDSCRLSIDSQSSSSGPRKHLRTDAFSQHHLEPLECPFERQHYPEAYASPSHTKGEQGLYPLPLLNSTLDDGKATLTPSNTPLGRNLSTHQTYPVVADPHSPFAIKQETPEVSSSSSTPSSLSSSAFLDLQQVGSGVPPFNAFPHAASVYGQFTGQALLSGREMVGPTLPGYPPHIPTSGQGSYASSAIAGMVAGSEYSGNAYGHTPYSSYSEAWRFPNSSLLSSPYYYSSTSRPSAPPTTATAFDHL

P388 = assay: cells; format: functional; settings: Mus musculus
SN12K1 = assay: cells; format: functional; settings: Homo sapiens
P388/ADR = assay: cells; format: functional; settings: Mus musculus
[13] = viability of PTEN-deleted HCT116 cells – cell-based, HCT116 PTEN knockout, dose response (AID 1047); format: functional;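 also: HCT116 colon tumor cells with PTEN knocked out; cells exposed to compound for 60 hours before readout; potency for loss of cell viability measured by luminescence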
[14] = viability of HCT116 lacking mutant beta-catenin – cell-based, human colon tumor, dose response (AID 1045); format: functional;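 also: HCT116 colon tumor cells with beta catenin knocked out; cells exposed to compound for 60 hours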
[15] = target: T2, Microphthalmia-associated transcription factor (Homo sapiens, UniProt O75030); assay: reducers of TRPM1 reporter luminescence, concentration series – cell-based, SK-MEL-5, cherry-picked, set 3, MITF inhibitor project, dose response (AID 493073); format: functional;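 also: SK-MEL-5 melanoma cells with luciferase driven by the MITF target TRPM1 promoter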
T2 sequence (O75030 whole entry): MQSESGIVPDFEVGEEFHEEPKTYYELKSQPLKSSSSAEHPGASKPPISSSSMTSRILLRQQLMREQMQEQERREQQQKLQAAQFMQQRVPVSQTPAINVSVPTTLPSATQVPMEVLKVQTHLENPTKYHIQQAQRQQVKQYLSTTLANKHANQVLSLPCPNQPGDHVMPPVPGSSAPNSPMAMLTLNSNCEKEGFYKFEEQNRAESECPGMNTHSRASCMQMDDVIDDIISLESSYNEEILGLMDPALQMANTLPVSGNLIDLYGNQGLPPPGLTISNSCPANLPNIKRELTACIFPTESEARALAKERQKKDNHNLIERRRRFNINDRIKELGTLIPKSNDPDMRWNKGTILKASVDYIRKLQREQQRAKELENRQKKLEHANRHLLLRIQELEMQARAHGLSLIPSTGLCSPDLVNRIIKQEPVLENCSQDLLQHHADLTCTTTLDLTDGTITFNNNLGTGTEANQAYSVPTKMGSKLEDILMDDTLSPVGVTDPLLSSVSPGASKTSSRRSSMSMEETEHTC

Genome polyprotein = Genome polyprotein (dengue virus type 2, UniProt P29990); assay: flavivirus cap methylation enzyme inhibition – biochemical, confirmation dose response, primary screen (AID 588689); format: functional
Sequence of Genome polyprotein (P29990 2492-3391 limits assumed): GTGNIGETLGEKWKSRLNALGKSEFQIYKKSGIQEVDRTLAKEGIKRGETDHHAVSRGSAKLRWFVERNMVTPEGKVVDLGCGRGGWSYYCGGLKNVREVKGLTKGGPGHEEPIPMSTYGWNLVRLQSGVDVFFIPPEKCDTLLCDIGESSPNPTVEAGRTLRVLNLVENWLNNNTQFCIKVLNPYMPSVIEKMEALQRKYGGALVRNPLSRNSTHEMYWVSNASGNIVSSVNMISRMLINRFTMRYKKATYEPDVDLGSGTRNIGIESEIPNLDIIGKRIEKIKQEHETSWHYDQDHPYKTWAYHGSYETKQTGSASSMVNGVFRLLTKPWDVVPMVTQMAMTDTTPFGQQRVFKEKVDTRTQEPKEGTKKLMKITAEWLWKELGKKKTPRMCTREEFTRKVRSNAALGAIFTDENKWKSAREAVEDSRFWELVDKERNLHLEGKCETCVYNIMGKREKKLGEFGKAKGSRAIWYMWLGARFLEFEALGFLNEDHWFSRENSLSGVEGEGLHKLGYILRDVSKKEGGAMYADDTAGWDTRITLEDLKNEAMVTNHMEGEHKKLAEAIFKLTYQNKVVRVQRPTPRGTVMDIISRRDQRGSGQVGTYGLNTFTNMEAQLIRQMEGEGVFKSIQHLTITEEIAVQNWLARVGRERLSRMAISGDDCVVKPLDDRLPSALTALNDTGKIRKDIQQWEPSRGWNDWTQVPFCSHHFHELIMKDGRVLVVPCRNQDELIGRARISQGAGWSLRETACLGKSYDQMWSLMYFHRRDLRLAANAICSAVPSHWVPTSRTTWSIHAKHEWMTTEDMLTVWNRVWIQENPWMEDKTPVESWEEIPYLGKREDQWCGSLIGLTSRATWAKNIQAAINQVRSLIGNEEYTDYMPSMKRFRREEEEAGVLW

Aminopeptidase N = target: T3, Aminopeptidase N (Plasmodium falciparum FcB1/Columbia, UniProt O96935); assay: malaria alanyl aminopeptidase activity blockers – biochemical, fluorogenic H-Leu-NHMec substrate, 1536-well (AID 1445); parameters: species or system Plasmodium falciparum 3D7, 3D7
T3 sequence (O96935 whole entry): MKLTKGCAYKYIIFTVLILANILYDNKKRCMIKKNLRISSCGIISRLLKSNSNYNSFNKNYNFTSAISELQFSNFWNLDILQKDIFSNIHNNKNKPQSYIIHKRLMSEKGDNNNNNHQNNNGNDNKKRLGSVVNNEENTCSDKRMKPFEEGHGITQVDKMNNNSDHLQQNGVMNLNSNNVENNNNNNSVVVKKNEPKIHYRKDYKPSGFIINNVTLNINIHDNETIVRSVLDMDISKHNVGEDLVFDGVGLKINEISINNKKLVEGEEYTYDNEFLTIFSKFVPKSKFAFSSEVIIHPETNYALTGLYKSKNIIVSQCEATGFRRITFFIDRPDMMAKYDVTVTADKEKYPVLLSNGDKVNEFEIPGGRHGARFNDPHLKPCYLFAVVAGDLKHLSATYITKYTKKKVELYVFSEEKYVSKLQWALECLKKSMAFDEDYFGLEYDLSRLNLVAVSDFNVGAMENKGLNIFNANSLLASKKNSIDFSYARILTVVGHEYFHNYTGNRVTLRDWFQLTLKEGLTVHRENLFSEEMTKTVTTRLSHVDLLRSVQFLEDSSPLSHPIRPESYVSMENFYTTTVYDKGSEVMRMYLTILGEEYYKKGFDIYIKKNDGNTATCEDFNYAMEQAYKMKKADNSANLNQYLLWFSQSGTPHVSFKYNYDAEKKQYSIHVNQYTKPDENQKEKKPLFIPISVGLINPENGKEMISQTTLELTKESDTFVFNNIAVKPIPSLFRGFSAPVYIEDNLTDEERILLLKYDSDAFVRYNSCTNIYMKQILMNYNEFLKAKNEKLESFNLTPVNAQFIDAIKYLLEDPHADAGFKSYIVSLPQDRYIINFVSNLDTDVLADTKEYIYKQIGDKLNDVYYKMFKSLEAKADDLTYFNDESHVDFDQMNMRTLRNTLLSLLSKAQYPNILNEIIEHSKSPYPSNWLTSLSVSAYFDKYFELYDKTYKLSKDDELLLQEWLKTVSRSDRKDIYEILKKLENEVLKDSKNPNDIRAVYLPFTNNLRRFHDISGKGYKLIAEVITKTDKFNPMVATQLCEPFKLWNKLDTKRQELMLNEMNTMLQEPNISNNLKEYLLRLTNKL

Sequence of Fatty acid synthase (P49327 whole entry): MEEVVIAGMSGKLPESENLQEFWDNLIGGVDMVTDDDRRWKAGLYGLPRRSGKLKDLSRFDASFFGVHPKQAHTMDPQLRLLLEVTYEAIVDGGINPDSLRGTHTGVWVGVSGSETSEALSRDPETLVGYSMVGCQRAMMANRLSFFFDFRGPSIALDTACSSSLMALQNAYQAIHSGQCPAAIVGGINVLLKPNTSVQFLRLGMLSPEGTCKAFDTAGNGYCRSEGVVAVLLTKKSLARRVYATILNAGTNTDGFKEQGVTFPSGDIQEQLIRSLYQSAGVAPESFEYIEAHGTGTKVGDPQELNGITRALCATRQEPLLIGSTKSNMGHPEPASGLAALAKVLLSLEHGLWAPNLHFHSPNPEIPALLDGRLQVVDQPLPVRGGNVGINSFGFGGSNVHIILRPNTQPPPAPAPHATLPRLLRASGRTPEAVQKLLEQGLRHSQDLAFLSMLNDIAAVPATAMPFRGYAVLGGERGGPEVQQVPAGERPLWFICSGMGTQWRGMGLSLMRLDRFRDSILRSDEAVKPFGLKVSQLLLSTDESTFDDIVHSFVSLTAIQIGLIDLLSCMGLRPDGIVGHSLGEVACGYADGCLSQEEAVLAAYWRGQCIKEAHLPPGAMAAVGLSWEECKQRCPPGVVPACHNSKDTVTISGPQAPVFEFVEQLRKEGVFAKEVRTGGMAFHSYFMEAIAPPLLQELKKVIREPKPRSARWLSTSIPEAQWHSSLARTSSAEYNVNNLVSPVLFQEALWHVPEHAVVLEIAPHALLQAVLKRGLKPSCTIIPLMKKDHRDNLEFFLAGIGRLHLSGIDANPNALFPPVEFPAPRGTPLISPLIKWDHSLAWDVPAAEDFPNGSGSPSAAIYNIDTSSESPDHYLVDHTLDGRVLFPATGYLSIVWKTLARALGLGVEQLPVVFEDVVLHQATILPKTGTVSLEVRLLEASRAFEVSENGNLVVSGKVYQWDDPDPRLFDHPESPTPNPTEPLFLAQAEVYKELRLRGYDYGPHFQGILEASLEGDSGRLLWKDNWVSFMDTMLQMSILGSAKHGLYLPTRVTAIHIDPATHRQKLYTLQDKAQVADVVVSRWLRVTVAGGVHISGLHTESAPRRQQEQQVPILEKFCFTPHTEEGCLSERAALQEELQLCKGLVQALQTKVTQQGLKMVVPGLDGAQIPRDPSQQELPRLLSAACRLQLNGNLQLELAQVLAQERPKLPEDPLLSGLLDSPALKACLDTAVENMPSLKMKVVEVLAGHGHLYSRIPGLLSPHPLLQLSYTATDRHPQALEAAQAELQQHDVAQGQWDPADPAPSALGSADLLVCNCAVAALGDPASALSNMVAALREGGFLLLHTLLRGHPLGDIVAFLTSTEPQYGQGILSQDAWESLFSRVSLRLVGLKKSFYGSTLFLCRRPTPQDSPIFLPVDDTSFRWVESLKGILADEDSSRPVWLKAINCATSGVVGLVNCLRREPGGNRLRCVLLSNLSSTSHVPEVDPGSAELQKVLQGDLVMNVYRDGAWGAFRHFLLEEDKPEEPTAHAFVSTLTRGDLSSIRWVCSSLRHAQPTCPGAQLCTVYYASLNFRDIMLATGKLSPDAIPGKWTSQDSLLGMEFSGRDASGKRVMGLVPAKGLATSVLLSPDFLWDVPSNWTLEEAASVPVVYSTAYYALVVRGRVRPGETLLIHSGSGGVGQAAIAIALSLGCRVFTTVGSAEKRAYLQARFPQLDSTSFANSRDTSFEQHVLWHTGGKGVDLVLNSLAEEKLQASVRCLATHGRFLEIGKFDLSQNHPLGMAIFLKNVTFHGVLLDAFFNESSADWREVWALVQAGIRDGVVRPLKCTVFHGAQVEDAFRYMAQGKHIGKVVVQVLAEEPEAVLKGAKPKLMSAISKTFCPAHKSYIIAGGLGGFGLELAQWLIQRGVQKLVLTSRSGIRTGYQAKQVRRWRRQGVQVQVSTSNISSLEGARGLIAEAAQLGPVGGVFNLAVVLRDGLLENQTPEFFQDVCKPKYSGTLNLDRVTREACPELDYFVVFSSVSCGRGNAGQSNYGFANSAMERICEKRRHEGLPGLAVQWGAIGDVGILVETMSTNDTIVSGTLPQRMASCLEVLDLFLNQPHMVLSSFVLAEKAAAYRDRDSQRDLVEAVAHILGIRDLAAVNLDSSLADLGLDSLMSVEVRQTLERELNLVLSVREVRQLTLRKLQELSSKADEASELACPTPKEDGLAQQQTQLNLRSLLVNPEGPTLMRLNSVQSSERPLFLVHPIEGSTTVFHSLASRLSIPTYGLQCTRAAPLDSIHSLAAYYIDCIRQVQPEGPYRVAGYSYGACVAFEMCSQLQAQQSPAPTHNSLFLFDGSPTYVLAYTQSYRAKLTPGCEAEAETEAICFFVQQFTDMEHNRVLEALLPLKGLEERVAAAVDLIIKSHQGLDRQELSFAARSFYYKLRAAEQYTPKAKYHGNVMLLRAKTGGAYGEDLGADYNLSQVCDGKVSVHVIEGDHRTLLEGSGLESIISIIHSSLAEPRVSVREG

O=C(COc1ccccc1)Nc1nc(-c2ccc(S(=O)(=O)N3CCOCC3)cc2)cs1
IC50 (Fatty acid synthase): 0.489 µM (active)

COc1ccc(C)cc1NC(=O)CSc1ccc(-c2ccccn2)nn1
IC50 (Nonstructural protein 1): 9.77 µM (active)

Cc1ccc(CN2CCSc3ccc(C(=O)NCCCN4CCN(C)CC4)cc32)cc1
AC50 [1]: 0.195 µM (active)

Cc1ccc2nc(-c3cccc(NS(C)(=O)=O)c3)cc(-c3ccccc3)c2c1
AC50 [2]: 4.75 µM (active)
AC50 [3]: 4.13 µM (active)

CC(C)CCSc1nc(N)c(C#N)cc1C#N
AC50 [4]: 26.2 µM (active)
AC50 [5]: 25.6 µM (active)
AC50 [6]: 32.3 µM (active)
EC50 [7]: > 60 µM (not active)
EC50 [8]: 0.542 µM (active)
AC50 [9]: 23.4 µM (active)

CN(C)c1ccc(NC(=O)CSc2nnc(-c3cnccn3)n2C)cc1
IC50 (Large T antigen): 17.8 µM (active)

Sc1n[nH]c(-c2csc3c2CCCC3)n1
AC50 [1]: 0.044 µM (active)

O=c1cccc2n1CC1CC2CN(c2nc(N3CCCCC3)nc(N3CCCCC3)n2)C1 (stereo unspecified)
AC50 [4]: 1.69 µM (active)
EC50 [10]: > 260 µM (inactive)
AC50 [5]: 6.73 µM (active)
AC50 [6]: 1.58 µM (active)
AC50 [9]: 3.76 µM (active)

COC(=O)c1ccc(N2CCc3ccccc32)c([N+](=O)[O-])c1
IC50 (Nonstructural protein 1): 24 µM (active)

Cc1ccc(C)c(S(=O)(=O)Nc2ccc(O)cc2)c1
IC50 (Large T antigen): 11.1 µM (active)

CN(CCCNC(=O)C1CCCN(S(=O)(=O)c2c[nH]cn2)C1)c1ccccc1 (stereo unspecified)
AC50 [1]: 0.085 µM (active)

Cc1nc(C)c(-c2csc(Nc3ccc(F)cc3)n2)s1
AC50 [1]: 0.185 µM (active)

O=C(CC(NCc1ccccn1)C(=O)O)Nc1ccccc1Cl (stereo unspecified)
IC50 (Nonstructural protein 1): 1.48 µM (active)

CCN(CC)c1ccc(CN(C(=O)c2cccs2)C2CCS(=O)(=O)C2)cc1 (stereo unspecified)
AC50 [1]: 2.65 µM (active)

COC(=O)C1=C(c2ccc(F)cc2OCc2ccccc2)C[C@@H]2CC[C@H]1N2C(=O)NC1Cc2ccccc2C1
AC50 [11]: 29.3 µM (active)
AC50 [12]: 8 µM (active)
AC50 (Paired box protein Pax-8): 9.27 µM (active)

CCOC(=O)c1cccc(NS(=O)(=O)c2ccc(NC(C)=O)cc2)c1
AC50 [4]: 4.26 µM (active)
AC50 [5]: 10 µM (active)
AC50 [9]: 39.7 µM (active)

O=C1c2ccccc2C(=O)N1CCc1c[nH]c2ccc(O)cc12
IC50 (Large T antigen): 59.7 µM (active)

COC(=O)NC1C(C)OC(OC2C/C=C(/C)C3C=CC4C(OC5CC(OC6CCC(OC7CC(O)C(OC8CCC(O)C(C)O8)C(C)O7)C(C)O6)C(OC(C)=O)C(C)O5)C(C)CC(C)C4C3(C)/C(O)=C3/C(=O)OC4(CC(C=O)=CC(O)C4/C=C\2C)C3=O)CC1(C)[N+](=O)[O-] (stereo unspecified)
GI50 (P388): 0.337 µM (active)
GI50 (SN12K1): 0.262 µM (active)
GI50 (P388/ADR): 2.64 µM (inactive)

C=CCCCCn1c2ccccc2c2c(C)c3cnccc3c(C)c21
GI50 (P388): 1.93 µM (inactive)
GI50 (SN12K1): 5.97 µM (inactive)
GI50 (P388/ADR): 1.84 µM (inactive)

C=CC(=O)NC(=N)NC#N
GI50 (P388): 12.8 µM (inactive)
GI50 (SN12K1): > 100 µM (inactive)
GI50 (P388/ADR): 25.8 µM (inactive)

Nc1c(/N=N/c2ccc(-c3ccc(/N=N/c4c(O)ccc5cc(S(=O)(=O)O)cc(S(=O)(=O)O)c45)cc3)cc2)c(S(=O)(=O)O)cc2cc(S(=O)(=O)O)c(/N=N/c3ccccc3)c(O)c12
GI50 (P388): > 100 µM (inactive)
GI50 (SN12K1): > 100 µM (inactive)

COc1ccc(NC(=O)CCC(=O)N/N=C/c2ccc([N+](=O)[O-])s2)cc1
EC50 [13]: 11.5 µM (active)
AC50 [2]: 2.7 µM (active)
EC50 [14]: 11.3 µM (active)
AC50 [15]: 7.62 µM (active)

C/C=C/c1cc2c(c(=O)o1)C(=O)[C@@H](O)[C@H](C)O2
GI50 (P388): 2.77 µM (inactive)
GI50 (SN12K1): 17.1 µM (inactive)
GI50 (P388/ADR): 2.89 µM (inactive)

C=CC[N+](CCO)(CCO)CCCCCCCCCCCCCCCCCC
GI50 (P388): 0.486 µM (active)
GI50 (SN12K1): 6.08 µM (inactive)
GI50 (P388/ADR): 5.3 µM (inactive)

COC(=O)c1ccc(COc2ccccc2/C=N/Nc2cccc(C(=O)O)c2)cc1
IC50 (Genome polyprotein): 76.2 µM (active)
IC50 (Aminopeptidase N): 47 µM (active)

N/C(S)=N/N=C/c1ccc(O)cn1
GI50 (P388): 1.95 µM (inactive)
GI50 (SN12K1): 3.61 µM (inactive)
